Assay: Evaluation of polyglyceryl ester surfactants for structuring a liposome
Format: physicochemical
Conditions: class given by column head
Experimental: A series of polyglyceryl ester surfactants were evaluated to identify those capable of structuring a liposome. These reveal that liposome formation requires from 8 to 12 units of glycerol and a di-ester of C14-C18 fatty acid to establish a liposomal structure.

Row | Substance | structure formed by the surfactant (O/W emulsion, liposome or W/O emulsion)
1 | Polyglyceryl-10 Mono/Dioleate | forms O/W emulsions
2 | Polyglyceryl-10 Dioleate | forms liposomes

From patent US10702475B2, “Liposome containing compositions and their use in personal care and food products” (priority 2017, dated 2020)
